Measured values as given in patent US9028856B2, “Synergistic pesticide compositions” (priority 2008, dated 2015).

Legend:
[1] = octanol-water partition coefficient (Log K ow), Table 1; cited from earlier work
[2] = format: physicochemical; conditions: classified from Log P
Source text: As used herein, a “partition coefficient” is defined as the ratio of concentrations of an un-ionized compound between solutions of water and octanol. To measure the partition coefficient of ionizable solutes, the pH of the aqueous phase is adjusted such that the predominant form of the compound is un-ionized. The logarithm of the ratio of the concentrations of the un-ionized solute in the solvents is referred to herein as log P or log K ow.
As noted herein, the octanol-water partition coefficient may be used to identify the cuticular penetration of a particular active ingredient. One factor in the relative speed through which any insecticide acts is the insecticide's ability to cross the insect cuticle. A determining factor for cuticle penetration is Log K ow, also known as Log P. Log K ow (Log P) is the octanol-water partition coefficient for a neutral molecule. Log P is used hereinfurther, but, as noted above, the term is synonymous with Log K ow. As previously noted, the cuticular penetration of any particular active ingredient as against a plant cuticle is not indicative of that same active ingredient's ability to penetrate an insect cuticle.
The cuticular penetration of a compound is classified as “INTERMEDIATE” when the Log P value is between about 2.0 and about 4.0.

[3] = test system: Musca domestica, susceptible strain WHO(N); assay: Efficacy of formulations on surfaces (glazed/unglazed tiles), house flies, continuous exposure; format: in vivo; conditions: Table 114; 0.002% = 1 mg DTM/m^2 on glazed tiles; EC formulation; continuous exposure
Procedure: A flat fan nozzle (type SS 8003-E) in a spray cabin was moved automatically over a defined area where the solutions were sprayed very evenly onto the surfaces. The formulation was mixed with water to give a concentration which corresponded to the desired quantity of a.i./m^2. A defined quantity of this solution was sprayed onto the area (nominal 350 liter/ha=0.77 ml per surface).
(§1) All surfaces were provided with talcum-coated glass rings (diameter 9.5 cm, height 5.5 cm) one day later.
The test insects were anesthetized with CO2, 20 individuals were placed onto the treated surfaces and the glass ring was covered with wire gauze ring.
Knock down was determined after 15 and 30′, 1, 2, 4 and 6 hours, mortality after 1 day exposure.
(§2) Each test consisted of at least one replicate and any additional replicates are noted.
(§3) Test Insects: House flies (Musca domestica) of both sexes, susceptible strain WHO(N) and resistant strain Reichswald
(§4) Evaluation: Mortality was evaluated cumulatively at different times. […]
(§5) Test Insects: Culex quinquefasciatus (adults) (3 minutes exposure time according to USDA Petri Dish Method), Musca domestica (adults), susceptible and resistant strain, Blattella germanica (males), Cimex lectularius (adults) (all: continuous exposure time)
(§6) Application: The EC formulation (diluted with water 1:9) were applied as 0.85 ml solutions onto glazed tiles (15 cm×15 cm)
(§7) Evaluation: Knock down after 15, and 30 minutes, 1, 2, 3, 4, 6 and 24 hours (mortality)
(§8) Test Insects: Culex quinquefasciatus (adults, susceptible) (3 minutes exposure time according to USDA Petri Dish Method), Musca domestica (adults, susceptible and resistant), Blattella germanica (males, susceptible) (both: continuous exposure time)
(§9) Formulations: Insecticide with or without 10% Compound A (as EC), to be diluted with water (1 part formulation+9 parts water)
Evaluation: Knock down after 3, 9 (mosquitoes only), 15, and 30 minutes, 1, 2, 3, 4 and 24 hours (mortality) […]

[4] = test system: Cimex lectularius (adults); assay: Efficacy on glazed tiles (acetone solutions or EC formulations), continuous exposure; format: in vivo; conditions: on tiles, insecticide alone (imidacloprid 50 mg/m^2, Bendiocarb 50 mg/m^2, Ethiprole 10 mg/m^2, DTM 1 mg/m^2), no Compound A
Procedure: as §5, §6, §7
Test Insects: Culex quinquefasciatus (adults) (3 minutes exposure time according to USDA Petri Dish Method), Cimex lectularius (adults), Acheta domesticus (middle nymphs) (both: continuous exposure time)
Application: The active ingredients were applied as 1 ml acetone solutions onto glazed tiles (15 cm×15 cm)
(§10) Evaluation: Knock down after 3, 9 (mosquitoes only), 15, and 30 minutes, 1, 2, 3, 4 and 24 hours (mortality)
Test Insects: Culex quinquefasciatus (adults) (3 minutes exposure time according to USDA Petri Dish Method), Cimex lectularius (adults), (continuous exposure time)
Test Insects: Cimex lectularius, Culex quinquefasciatus, Musca domestica (all adults, susceptible strains)
Application: The active ingredients were applied as 1 ml acetone solutions onto glazed tiles (15 cm×15 cm), continuous exposure time

[5] = test system: Blattella germanica (males, susceptible); assay: Efficacy of EC formulations on glazed/unglazed tiles, continuous exposure; format: in vivo; conditions: 0.002% = 1 mg DTM/m^2 on glazed tiles, EC formulation
Procedure: as §1
(§11) The test insects were anesthetized with CO2, 20 individuals were placed onto the treated surfaces and the glass ring was covered with wire gauze ring. […]
Each test consisted of at least one replicate and any additional replicates are noted. […]
as §8, §9
Application: 1 ml of the diluted formulations was applied by pipette onto glazed tiles (15×15 cm)
as §10

[6] = test system: tropical house mosquito Culex quinquefasciatus (adults, 3 days old); assay: Efficacy of formulations on surfaces (glazed/unglazed tiles, plywood), ten 3 day old mosquitoes, 3 min exposure; format: in vivo; conditions: 0.002% = 1 mg DTM/m^2 on glazed tiles; EC formulation; 3 minutes exposure
Procedure: The ingredients were diluted in acetone to give a concentration which corresponds to the desired quantity of a.i./m^2. A 1 ml quantity of the solution was applied by pipette onto the 15 cm×15 cm surfaces without treating the outer edge of 1 cm.
(§12) Ten 3 day old Culex quinquefasciatus mosquitoes were exposed to each treatment for 3 minutes under a perforated petri dish, and then a clean untreated white paper index card was moved between treated surface and petri dish. A water-soaked cotton pad was applied immediately after.
Each test consisted of three replicates (three batches of ten mosquitoes were exposed for three minutes to the same surface, each one hour later), of which the mean values are calculated.
The test insects were Culex quinquefasciatus (adults, 3 days old). The compositions were evaluated for their ability to provide effective knock down after 3, 9, 15, and 30 minutes, 1, 2, 3, 4 and 24 hours (mortality). The experiments were performed in triplicate on glazed tile, but not repeated on wood.
Test Insects are Culex quinquefasciatus (adults, 3 days old). The Application provides the technical compounds were dissolved in acetone and applied as 1 ml solutions onto glazed tiles (15 cm×15 cm). An evaluation is provided at knock down after 3, 9, 15, and 30 minutes, 1, 2, 3, 4 and 24 hours (mortality). There are 3 replicates.
Test Insects: Culex quinquefasciatus (adults, 3 days old)
Application: The technical compounds were dissolved in acetone and applied as 1 ml solutions onto glazed tiles (15 cm×15 cm).
Evaluation: Knock down after 3, 9, 15, and 30 minutes, 1, 2, 3, 4 and 24 hours (mortality) […]
Application: The active ingredients were applied as 1 ml acetone solutions onto glazed tiles (15 cm×15 cm) […]
as §12, with “For the mosquitoes, the USDA Petri Dish Method is used. Ten” for “Ten”, “are” for “were”, “dish” for “dish,”, “is” for “was”, “after. […]” for “after.”

[7] = test system: Musca domestica, resistant strain Reichswald; assay: Efficacy of formulations on surfaces (glazed/unglazed tiles), house flies, continuous exposure; format: in vivo; conditions: Table 115; 0.002% = 1 mg DTM/m^2 on glazed tiles; EC formulation; continuous exposure
Procedure: as §1, §11, §2, §3, §4, §5, §6

## COC(=O)N(C(=O)N1CO[C@@]2(C(=O)OC)Cc3cc(Cl)ccc3C2=N1)c1ccc(OC(F)(F)F)cc1 [indoxacarb]
[1]
  Log P: 4.6
[2]
  Likelihood of Direct Insect Cuticular Penetration: Fast (classified as “FAST” when it has a Log P value of about >4.0)

## CN/C(=N\[N+](=O)[O-])NCc1cnc(Cl)s1 [clothianidin]
[1]
  Log P: 0.7
[2]
  Likelihood of Direct Insect Cuticular Penetration: Slow (classified as “SLOW” when the compound has a Log P value of about <2.0)

## N#Cc1ccc(CC(=NNC(=O)Nc2ccc(OC(F)(F)F)cc2)c2cccc(C(F)(F)F)c2)cc1 (mixture of isomers) [metaflumizone]
[1]
  Log P: 5.1
[2]
  Likelihood of Direct Insect Cuticular Penetration: Fast (classified as “FAST” when it has a Log P value of about >4.0)

## CCNS(=O)(=O)C(F)(F)C(F)(F)C(F)(F)C(F)(F)C(F)(F)C(F)(F)C(F)(F)C(F)(F)F [sulfluramid]
[1]
  Log P: >6.8
[2]
  Likelihood of Direct Insect Cuticular Penetration: Fast (classified as “FAST” when it has a Log P value of about >4.0)

## O=C(NC(=O)c1c(F)cccc1F)Nc1cc(Cl)c(OC(F)(F)C(F)C(F)(F)F)c(Cl)c1F (stereo not shown) [noviflumuron]
[1]
  Log P: 4.9
[2]
  Likelihood of Direct Insect Cuticular Penetration: Fast (classified as “FAST” when it has a Log P value of about >4.0)

## CC1(C)CNC(=NN=C(/C=C/c2ccc(C(F)(F)F)cc2)/C=C/c2ccc(C(F)(F)F)cc2)NC1 [hydramethylnon]
[1]
  Log P: 2.3
[2]
  Likelihood of Direct Insect Cuticular Penetration: Intermediate (classified as “INTERMEDIATE” when the Log P value is between about 2.0 and about 4.0)

## CCc1nn(C)c(C(=O)NCc2ccc(C(C)(C)C)cc2)c1Cl [tebufenpyrad]
[1]
  Log P: 4.9
[2]
  Likelihood of Direct Insect Cuticular Penetration: Fast (classified as “FAST” when it has a Log P value of about >4.0)

## C/C(=N\C#N)N(C)Cc1ccc(Cl)nc1 [acetamiprid]
[1]
  Log P: 0.8
[2]
  Likelihood of Direct Insect Cuticular Penetration: Slow (classified as “SLOW” when the compound has a Log P value of about <2.0)

## O=C(NC(=O)c1c(F)cccc1F)Nc1cc(Cl)c(OC(F)(F)C(F)F)c(Cl)c1 [hexaflumuron]
[1]
  Log P: 5.6
[2]
  Likelihood of Direct Insect Cuticular Penetration: Fast (classified as “FAST” when it has a Log P value of about >4.0)

## CC(COc1ccc(Oc2ccccc2)cc1)Oc1ccccn1 (stereo not shown) [pyriproxifen]
[1]
  Log P: 5.4
[2]
  Likelihood of Direct Insect Cuticular Penetration: Fast (classified as “FAST” when it has a Log P value of about >4.0)

## abamectin
[1]
  Log P: 4.4
[2]
  Likelihood of Direct Insect Cuticular Penetration: Fast (classified as “FAST” when it has a Log P value of about >4.0)

## CC1(C)[C@H](C(=O)O[C@H](C#N)c2cccc(Oc3ccccc3)c2)[C@@H]1C=C(Br)Br [DTM]
[3]
  % KD and Mortality 15′: 10%
  % KD and Mortality 30′: 85%
  % KD and Mortality 1 h: 95%
  % KD and Mortality 2 h: 100%
  % KD and Mortality 3 h: 100%
  % KD and Mortality 4 h: 100%
  % KD and Mortality 6 h: 100%
  % KD and Mortality 24 h: 100%
[4]; 15′
  % KD and Mortality: 0%
[4]; 30′
  % KD and Mortality: 0%
[4]; 1 h
  % KD and Mortality: 0%
[4]; 2 h
  % KD and Mortality: 10%
[4]; 3 h
  % KD and Mortality: 80%
[4]; 4 h
  % KD and Mortality: 100%
[4]; 6 h
  % KD and Mortality: 100%
[4]; 24 h
  % KD and Mortality: 100%
[5]
  % KD and Mortality 15′: 0%
  % KD and Mortality 30′: 40%
  % KD and Mortality 1 h: 100%
  % KD and Mortality 2 h: 100%
  % KD and Mortality 3 h: 100%
  % KD and Mortality 4 h: 100%
  % KD and Mortality 6 h: 100%
  % KD and Mortality 24 h: 100%
[6]
  % KD and Mortality 15′: 0%
  % KD and Mortality 30′: 0%
  % KD and Mortality 1 h: 10%
  % KD and Mortality 2 h: 10%
  % KD and Mortality 3 h: 10%
  % KD and Mortality 4 h: 10%
  % KD and Mortality 6 h: 20%
  % KD and Mortality 24 h: 80%
[7]
  % KD and Mortality 15′: 0%
  % KD and Mortality 30′: 0%
  % KD and Mortality 1 h: 0%
  % KD and Mortality 2 h: 0%
  % KD and Mortality 3 h: 0%
  % KD and Mortality 4 h: 0%
  % KD and Mortality 6 h: 0%
  % KD and Mortality 24 h: 5%

## COC(C)(C)CCC[C@H](C)C/C=C/C(C)=C/C(=O)OC(C)C (racemic) [methoprene]
[1]
  Log P: >6.0
[2]
  Likelihood of Direct Insect Cuticular Penetration: Fast (classified as “FAST” when it has a Log P value of about >4.0)

## CS/C(C)=N\OC(=O)N(C)SN(C)C(=O)O/N=C(\C)SC [thiodicarb]
[1]
  Log P: 1.6
[2]
  Likelihood of Direct Insect Cuticular Penetration: Slow (classified as “SLOW” when the compound has a Log P value of about <2.0)

## spiromesifen
[1]
  Log P: 4.6
[2]
  Likelihood of Direct Insect Cuticular Penetration: Fast (classified as “FAST” when it has a Log P value of about >4.0)

## spinosad
[1]
  Log P: 2.8-5.2
[2]
  Likelihood of Direct Insect Cuticular Penetration: Intermediate-Fast
